{"source": "paper PMC10508484", "about": "“Development and application of a PBPK modeling strategy to support antimalarial drug development” (CPT: Pharmacometrics & Systems Pharmacology, 2023)", "key": {"[1]": {"assay": "In vitro flags for victim and perpetrator properties conferring DDI liability", "type": "in vitro ADME, human", "conditions": "in vitro flag, mainly based on in vitro determinations"}, "[2]": {"system": "Caco-2 cells", "conditions": "Caco-2; cited from earlier work"}, "[3]": {"conditions": "cited from earlier work"}, "[4]": {"molecular_target": "T1, CYP2D6 (Homo sapiens, UniProt P10635)", "T1 sequence (P10635 whole entry)": "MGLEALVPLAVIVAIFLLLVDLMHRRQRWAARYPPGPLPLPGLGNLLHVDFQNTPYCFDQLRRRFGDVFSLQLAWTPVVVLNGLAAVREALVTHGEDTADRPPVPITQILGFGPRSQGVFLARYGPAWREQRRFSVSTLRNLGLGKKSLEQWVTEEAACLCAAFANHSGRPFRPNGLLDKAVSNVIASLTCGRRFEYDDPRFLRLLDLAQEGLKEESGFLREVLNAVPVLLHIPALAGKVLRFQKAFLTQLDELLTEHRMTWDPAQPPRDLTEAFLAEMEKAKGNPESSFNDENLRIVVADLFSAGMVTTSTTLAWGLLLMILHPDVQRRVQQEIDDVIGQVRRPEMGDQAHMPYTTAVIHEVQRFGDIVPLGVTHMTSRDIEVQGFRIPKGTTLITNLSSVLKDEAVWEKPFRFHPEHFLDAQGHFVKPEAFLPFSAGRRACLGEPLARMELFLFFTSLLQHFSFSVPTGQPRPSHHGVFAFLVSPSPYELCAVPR", "assay": "CYP2D6 inhibition"}, "[5]": {"conditions": "cited from earlier work", "remark": "listed apart in the source"}, "[6]": {"conditions": "ref Charman et al., 2020 1; cited from earlier work"}, "[7]": {"conditions": "PBPK input; ref atovaquone oral bioavailability Lavelle et al., 1994 17; chloroquine Walker et al., 1987 29; doxycycline Fabre et al., 1966 45, Saivin et al., 1988 46; proguanil Ke et al., 2014 64; pyronaridine mass balance study Morris et al., 2015 72; cited from earlier work"}, "[8]": {"molecular_target": "T2, CYP2C8 (Homo sapiens, UniProt P10632)", "T2 sequence (P10632 1-490)": "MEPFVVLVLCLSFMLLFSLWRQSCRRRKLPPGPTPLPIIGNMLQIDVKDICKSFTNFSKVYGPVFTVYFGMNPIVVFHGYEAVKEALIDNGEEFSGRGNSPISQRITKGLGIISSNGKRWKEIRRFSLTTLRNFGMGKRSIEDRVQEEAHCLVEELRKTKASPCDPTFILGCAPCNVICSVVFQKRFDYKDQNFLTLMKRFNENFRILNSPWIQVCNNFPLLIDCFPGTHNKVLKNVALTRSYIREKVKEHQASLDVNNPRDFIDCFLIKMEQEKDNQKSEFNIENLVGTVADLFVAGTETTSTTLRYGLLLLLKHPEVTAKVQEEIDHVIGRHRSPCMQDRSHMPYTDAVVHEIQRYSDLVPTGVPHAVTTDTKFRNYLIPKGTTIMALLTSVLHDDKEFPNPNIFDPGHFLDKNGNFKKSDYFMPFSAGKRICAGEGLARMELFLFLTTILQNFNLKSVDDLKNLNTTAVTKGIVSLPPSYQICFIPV", "assay": "Metabolism by CYP2C8 (CLint, fm)", "conditions": "for fmCYP2C8: fraction metabolised used in the PBPK model", "description": "(§1) In nearly all cases the fraction of systemic elimination metabolised by a given enzyme (fm) determined in vitro was unavailable in the literature."}, "[9]": {"conditions": "measured (0.4 mg/mL protein where stated); ref Charman et al., 2020 1; cited from earlier work"}, "[10]": {"assay": "In vivo clearance (CL IV, CL PO, CL renal, fe)", "conditions": "chloroquine model"}, "[11]": {"molecular_target": "CYP3A4 (Homo sapiens, UniProt P08684)", "sequence (P08684 whole entry)": "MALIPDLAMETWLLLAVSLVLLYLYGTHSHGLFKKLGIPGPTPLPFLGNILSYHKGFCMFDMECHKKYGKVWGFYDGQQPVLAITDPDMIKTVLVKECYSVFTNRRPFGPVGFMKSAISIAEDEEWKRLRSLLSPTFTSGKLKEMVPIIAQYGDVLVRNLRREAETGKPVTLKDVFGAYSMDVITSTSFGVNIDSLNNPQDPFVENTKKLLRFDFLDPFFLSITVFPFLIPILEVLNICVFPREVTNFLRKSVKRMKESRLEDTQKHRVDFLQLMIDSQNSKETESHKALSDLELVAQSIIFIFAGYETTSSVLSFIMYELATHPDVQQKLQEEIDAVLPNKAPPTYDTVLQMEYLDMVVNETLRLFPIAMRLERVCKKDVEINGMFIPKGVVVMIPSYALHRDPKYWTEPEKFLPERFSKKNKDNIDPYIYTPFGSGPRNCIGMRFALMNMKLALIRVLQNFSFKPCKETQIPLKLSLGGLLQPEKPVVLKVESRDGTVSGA", "description": "as §1"}, "[12]": {"system": "CYP2B6", "assay": "Metabolism by CYP2B6 (CLint, Vmax, Km, fm)", "type": "in vitro ADME, human", "description": "as §1"}, "[13]": {"system": "CYP1A2", "assay": "Metabolism by CYP1A2 (CLint, fm)", "type": "in vitro ADME, human", "description": "as §1"}, "[14]": {"assay": "Blood to plasma ratio (B:P)", "conditions": "PBPK input; unpublished (in-house) data"}, "[15]": {"molecular_target": "T1, CYP2D6", "assay": "Metabolism by CYP2D6 (CLint, fm)", "description": "as §1"}, "[16]": {"assay": "in vitro", "conditions": "human, plasma"}, "[17]": {"conditions": "cited from earlier work", "remark": "listed apart in the source"}, "[18]": {"system": "CYP2C9", "conditions": "ref mefloquine Karbwang et al., 1988 58; tafenoquine Charman et al., 2020 1; cited from earlier work"}, "[19]": {"conditions": "PBPK input, ref amodiaquine, DEAQ Winstanley et al., 1987 9, atovaquone Rolan et al., 1997 14, azithromycin Lalak et al., 1993 23, carboxyprimaquine Mihaly et al., 1985 26, chloroquine Walker et al., 1987 29, DHA EMA Website, 44, doxycycline Raghuram et al., 1982 48, Nguyen et al., 1989 49, mefloquine Schwartz et al., 1982 57, primaquine White, 1985 62, proguanil Jeppesen et al., 1997 34, pyrimeth"}, "[20]": {"conditions": "clinically observed oral (in vivo) clearance, pyronaridine: blood, ref amodiaquine Winstanley et al., 1987 9, DEAQ Akande et al., 2015 8, Scarsi et al., 2014 35, Tarning et al., 2012 36, Orrell et al., 2008 37, DHA Na-Bangchang et al., 2004 42, lumefantrine Lefevre et al., 2002 52, Hoglund et al., 2015 53, mefloquine Charles et al., 2007 56, proguanil Jeppesen et al., 1997 34, pyronaridine Jittama"}, "[21]": {"conditions": "retrograde calculations from CL PO, blood"}, "[22]": {"conditions": "fraction metabolised used in the PBPK model"}}, "note": "Like-named read-outs stand apart in the source and are kept apart here."}
{"smiles": "CCN(CC)Cc1cc(Nc2ccnc3cc(Cl)ccc23)ccc1O", "note": "[Amodiaquine, amodiaquine]", "values": [{"measurement": "Risk as a victim", "setting": "[1]", "value": "Substrate of CYP2C8"}, {"measurement": "Caco-2 (Papp A-B)", "setting": "[2]", "value": "9.8 10-6 cm/s"}, {"measurement": "CL PO", "setting": "[3]; in vivo, po", "value": 2500, "unit": "L/h"}, {"measurement": "CL renal", "setting": "[3]; in vivo", "value": 3.5, "unit": "L/h"}, {"measurement": "Ki", "setting": "[4]", "value": 0.45, "unit": "µM"}, {"measurement": "AUC Obs", "setting": "[5]; in vivo, 540 mg", "value": 331, "unit": "ng·h/mL"}]}
{"smiles": "CCN(CC)CCCC(C)Nc1ccnc2cc(Cl)ccc12", "note": "(centres unmarked) [Chloroquine, chloroquine]", "values": [{"measurement": "Risk as a perpetrator", "setting": "[1]", "value": "CYP2D6 inhibitor"}, {"measurement": "Risk as a victim", "setting": "[1]", "value": "Substrate of CYP2C8 and CYP3A4; renally cleared"}, {"measurement": "B:P", "setting": "[6]", "value": 3.5}, {"measurement": "fa", "setting": "[7]", "value": 1}, {"measurement": "CL renal", "setting": "[3]; [19]", "value": 24.78, "unit": "L/h"}, {"measurement": "CL IV", "setting": "[3]; clinically observed, ref atovaquone Lavelle et al., 1994 17, chloroquine Walker et al., 1987 29, Gustafsson et al., 1983 30, doxycycline Raghuram et al., 1982 48, Nguyen et al., 1989 49, primaquine Mihaly et al., 1985 26, quinine White et al., 1983 77, Paintaud et al., 1993 78", "value": 39.84, "unit": "L/h"}, {"measurement": "fmCYP2C8", "setting": "[8]", "value": 11, "unit": "%"}, {"measurement": "CLint CYP2C8", "setting": "[8]; human", "value": 0.27, "unit": "µL/min/pmol"}, {"measurement": "fumic", "setting": "[9]", "value": 0.5}, {"measurement": "renal clearance share of elimination", "setting": "[10]", "value": 57, "unit": "%"}, {"measurement": "Cmax Obs", "setting": "[5]; 300 mg infusion (over 23.5 mins) SD, ref Gustafsson et al., 1983 16", "value": 837, "unit": "ng/mL"}, {"measurement": "Cmax Obs", "setting": "[5]; 300 mg soln. SD, ref Gustafsson et al., 1983 16", "value": 73.0, "unit": "ng/mL"}, {"measurement": "Cmax Obs", "setting": "[5]; 300 mg tablet SD, ref Gustafsson et al., 1983 16", "value": 76.0, "unit": "ng/mL"}]}
{"smiles": "COc1ccc2nc3cc(Cl)ccc3c(Nc3cc(CN4CCCC4)c(O)c(CN4CCCC4)c3)c2n1", "note": "[Pyronaridine, pyronaridine]", "values": [{"measurement": "Risk as a perpetrator", "setting": "[1]", "value": "CYP2D6 and P‐gp inhibitor"}, {"measurement": "Risk as a victim", "setting": "[1]", "value": "Substrate of CYP1A2, CYP2B6, CYP2C8, CYP2D6 and CYP3A4"}, {"measurement": "fa", "setting": "[7]", "value": 0.74}, {"measurement": "fmCYP3A4", "setting": "[11]", "value": 61.1, "unit": "%"}, {"measurement": "CLint CYP3A4", "setting": "[11]; microsomes", "value": 0.42, "unit": "µL/min/pmol"}, {"measurement": "CL renal", "setting": "[3]; [19]", "value": 0.16, "unit": "L/h"}, {"measurement": "CL PO", "setting": "[3]; [20]", "value": 22.1, "unit": "L/h"}, {"measurement": "fe (fraction excreted unchanged in urine)", "setting": "[3]; ref atovaquone Rolan et al., 1997 14, mefloquine Schwartz et al., 1982 57, primaquine White, 1985 62, proguanil (extensive metabolisers) Jeppesen et al., 1997 34, pyronaridine Wattanavijitkul, 2010 74, sulfadoxine assumed with Edstein, 1987 83", "value": 1, "unit": "%"}, {"measurement": "CLint CYP2C8", "setting": "[8]; derived from in vivo clearance by retrograde calculations", "value": 0.19, "unit": "µL/min/pmol"}, {"measurement": "fmCYP2C8", "setting": "[8]", "value": 4.8, "unit": "%"}, {"measurement": "fmCYP2B6", "setting": "[12]; fraction metabolised used in the PBPK model (artemether: without induction)", "value": 7.7, "unit": "%"}, {"measurement": "CLint CYP2B6", "setting": "[12]; [21]", "value": 0.47, "unit": "µL/min/pmol"}, {"measurement": "fmCYP1A2", "setting": "[13]; [22]", "value": 4.7, "unit": "%"}, {"measurement": "CLint CYP1A2", "setting": "[13]; [21]", "value": 0.09, "unit": "µL/min/pmol"}, {"measurement": "B:P", "setting": "[14]", "value": 1.5}, {"measurement": "fmCYP2D6", "setting": "[15]; [22]", "value": 20.6, "unit": "%"}, {"measurement": "CLint CYP2D6", "setting": "[15]; retrograde calculations", "value": 1.33, "unit": "µL/min/pmol"}, {"measurement": "fraction unbound", "setting": "[16]", "value": 0.058}]}
{"smiles": "COc1cc(C)c2c(Oc3cccc(C(F)(F)F)c3)c(OC)cc(NC(C)CCCN)c2n1", "note": "(centres unmarked) [Tafenoquine, tafenoquine]", "values": [{"measurement": "Risk as a perpetrator", "setting": "[1]", "value": "CYP3A4 and CYP2C9 inhibitor"}, {"measurement": "B:P", "setting": "[6]", "value": 1.3}, {"measurement": "fu", "setting": "[17]; PBPK input, ref atovaquone Mepron Prescribing Information, 2008, Nixon et al., 2013 13, Rolan et al., 1997 14, azithromycin Foulds et al., 1990 20, chloroquine Ofori-Adjei et al., 1986 27, Walker et al., 1983 28, DHA Batty et al., 2004 41 (healthy volunteers), lumefantrine CDER submission 22-269, proguanil Wattanagoon et al., 1987 63, tafenoquine Dow et al., 2020 84", "value": 0.005}, {"measurement": "fu, range reported in the literature", "setting": "[17]; depending on the methodology used, ref literature", "value": "0.0007 to 0.11"}, {"measurement": "Main binding protein", "setting": "[17]; ref amodiaquine, DEAQ Hietala, 2009 2, atovaquone Nixon et al., 2013 13, DHA Batty et al., 2004 41, mefloquine, tafenoquine (also AGP) Zsila et al., 2008 54", "value": "HSA"}, {"measurement": "Ki", "setting": "[18]", "value": 10, "unit": "µM"}, {"measurement": "CL PO", "setting": "[3]; [20]", "value": 3.08, "unit": "L/h"}, {"measurement": "AUC Obs", "setting": "[5]; 300 mg SD, 0-72 h, ref Green et al., 2014 45", "value": 10611, "unit": "ng·h/mL"}, {"measurement": "Cmax Obs", "setting": "[5]; 300 mg SD, ref Green et al., 2014 45", "value": 186, "unit": "ng/mL"}, {"measurement": "AUC Obs", "setting": "[5]; 400 mg QD (3 days), 0-72 h, ref Green et al., 2014 45", "value": 41896, "unit": "ng·h/mL"}, {"measurement": "Cmax Obs", "setting": "[5]; 400 mg QD (3 days), ref Green et al., 2014 45", "value": 724, "unit": "ng/mL"}, {"measurement": "AUC Obs", "setting": "[5]; 600 mg SD, 0-72 h, ref Green et al., 2014 45", "value": 22986, "unit": "ng·h/mL"}, {"measurement": "Cmax Obs", "setting": "[5]; 600 mg SD, ref Green et al., 2014 45", "value": 422, "unit": "ng/mL"}]}
